The values that follow are results of earlier work, collected in article PMC5238771 (OncoTargets and therapy, 2017).

Series [1] relates to SMMC-7721 human hepatocellular carcinoma cell line. The settings on record: SMMC-7721 cells, dose-dependent and time-dependent.
The test system of series [2] is HepG2 human hepatocellular carcinoma cell line. As to conditions: HepG2 cells, dose-dependent and time-dependent.
The next series relates to CYP3A4 enzyme. The settings on record: both in vitro and in vivo.

For the compound `C[C@]12CC[C@H](O)C[C@H]1CC[C@@H]1[C@@H]2CC[C@]2(C)[C@@H](c3ccc(=O)oc3)CC[C@]12O` [bufalin], the Inhibition of proliferation entry in series [1] and in series [2] was “inhibited the proliferation” in each case. The “Inhibition of CYP3A4 enzyme” value in the series on CYP3A4 enzyme is “modest but significant inhibition”.
